According to patent US20230000996A1, “RAPAFUCIN DERIVATIVE COMPOUNDS AND METHODS OF USE THEREOF” (The Johns Hopkins University, priority 2019, published 2023):
Numbered stars: 1 amine (or outer) side, 2 acyl side, 3 side chain; on linkers, the order of the positions; unused ones are H or OH. Square brackets hold non-standard residues; d marks the D form. Side chains are listed from the residue outwards. Peptide text beside a SMILES is read from it. * marks the point of attachment. X1 = COc1ccc(CC[C@@H](N[*:1])c2cccc(OCC(=O)[*:2])c2)cc1OC; X2 = CN(CCC=CC(=O)OCC(C)(C)C(=O)C(=O)[*:2])[*:1]; NMeY = CN[C@@H](Cc1ccc(O)cc1)C(=O)O; Pip = O=C(O)[C@@H]1CCCCN1; Morpholide = C1CN(*)CCO1; CO = O=C([*:1])[*:2]; Sar = CNCC(=O)O

Assays:
[1] = tested on: NCI-H929; test: Cell proliferation, single concentration assay (Rel. Prolif.), response relative to DMSO; type: cell-based; conditions: NCI-H929 cells, activity relative to DMSO
[2] = tested on: 293T; test: Nucleoside uptake assay (3H-Thymidine), IC50 scored relative to DMSO control; type: cell-based; conditions: 293T cells
Experimental: Nucleoside Uptake Assay (uptake). Nuceloside uptake assays were performed with using 3H-Thymidine as described in Guo et al. (2018) Nat. Chem. 11:254-63. Specific cell lines are indicated in each assay and cultured in complete growth media. Activity is scored according to the IC50 values relative to DMSO control. “Low” indicates an IC50 greater than 600 nM, “Medium” indicates an IC50 between 300 nM and 600 nM “High” indicates an IC50 less than 300 nM. “Rel.Uptake” refers to uptake activity characterization relative to a single concentration assay. “Low” indicates a response greater than 0.6 times the activity relative to DMSO, “Medium” indicates a response between 0.6 and 0.3 times the activity relative to DMSO, “High” indicates a response less than 0.3 times the activity relative to DMSO.

[3] = Nucleoside uptake, single concentration assay (Rel.Uptake); cell line indicated in each table; type: cell-based; conditions: nucleoside uptake, single concentration assay, 293T cells, response relative to DMSO
Summary of the method: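 3H-thymidine uptake measured in the indicated cell lines (e.g. 293T) grown in complete media. IC50 scored relative to DMSO control as Low >600 nM, Medium 300-600 nM, High <300 nM; Rel.Uptake single-concentration response vs DMSO scored Low >0.6, Medium 0.3-0.6, High <0.3.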

[4] = tested on: H929; test: Cell proliferation assay (Prolif.), H929; type: cell-based; conditions: H929 cells; scored relative to DMSO control
[5] = tested on: Rat Renal Ischemia-Reperfusion model; test: Rat Renal Ischemia-Reperfusion model; type: in vivo, Sprague Dawley Rats; conditions: treated 30 min prior to right nephrectomy and left renal clamping; 24 hours of reperfusion; 1593 at 12 or 4 mg/kg, 1594 at 4 mg/kg
Experimental: Briefly, Sprague Dawley Rats were treated test compound 30 min prior to a right nephrectomy and with underwent clamping of the left renal clamping for 15 mins. After 24 hours of reperfusion, blood was collected to measure biomarkers for kidney damage and the kidney was removed for histology. […] SHAM indicates an animal group with right nephrectomy without ischemic injury. VE indicates vehicle. DPA indicates dipyridamole administered in a dosage of 10 mg/kg. Compound 1593 was administered at a high dosage (12 mg/kg) or a low dosage (4 mg/kg). Compound 1594 was administered at 4 mg/kg.

SMILES | Rel. Prolif., NCI-H929 [1] | Rel. Uptake, 293T [3] | other results
COc1ccc(CC[C@H]2OC(=O)[C@@H]3CCCCN3C(=O)C(=O)C(C)(C)COC(=O)C=CCCN(C)C(=O)[C@@H](Cc3ccccc3)NC(=O)CN(C)C(=O)[C@@H](Cc3ccccc3)NC(=O)[C@H](Cc3ccc(OC(=O)N4CCOCC4)cc3)N(C)C(=O)CCC(=O)Nc3cccc2c3)cc1OC [Compound 869] | low |  | 
COc1ccc(CC[C@H]2OC(=O)[C@@H]3CCCCN3C(=O)C(=O)C(C)(C)COC(=O)C=CCCN(C)C(=O)[C@@H](Cc3ccccc3)NC(=O)CN(C)C(=O)[C@@H](Cc3ccccc3)NC(=O)[C@H](Cc3ccc(OC(=O)N4CCOCC4)cc3)N(C)C(=O)COc3cccc2c3F)cc1OC [Compound 867] | low |  | 
COc1ccc(CC[C@H]2NC(=O)[C@@H]3CCCCN3C(=O)C(=O)C(C)(C)COC(=O)C=CCCN(C)C(=O)[C@H](CC(C)C)N(C)C(=O)[C@H]3CCCN3C(=O)[C@H](Cc3ccccc3)N(C)C(=O)C(c3ccccc3)NC(=O)CCC(=O)Nc3cccc2c3)cc1OC (stereo partly drawn) [Compound 1557] |  | high | Uptake, 293T ([2]; 3H-Thymidine uptake, IC50 class relative to DMSO control): high
COc1ccc(CC[C@H]2OC(=O)[C@@H]3CCCCN3C(=O)C(=O)C(C)(C)COC(=O)C=CCCN(C)C(=O)[C@H](CC(C)C)N(C)C(=O)[C@H]3CCCN3C(=O)[C@H](Cc3ccc(C(=O)Nc4ccccc4)cc3)NC(=O)[C@H](c3ccccc3)NC(=O)CCC(=O)Nc3cccc2c3)cc1OC [Compound 1559] |  | medium | Uptake, 293T ([2]; nucleoside uptake): medium
COc1ccc(CC[C@H]2NC(=O)[C@@H]3CCCCN3C(=O)C(=O)C(C)(C)COC(=O)C=CCCN(C)C(=O)[C@@H](Cc3ccccc3)NC(=O)CN(C)C(=O)[C@@H](Cc3ccccc3)NC(=O)[C@H](Cc3ccc(OC(=O)N4CCOCC4)cc3)N(C)C(=O)COc3cccc2c3)cc1OC [Compound 877] (cyclo([NMeY]([CO-Morpholide])[dF][Sar][dF][X2][Pip][X1])) |  |  | Prolif. H929 [4]: low
COc1ccc(CC[C@H]2OC(=O)[C@@H]3CCCCN3C(=O)C(=O)C(C)(C)COC(=O)C=CCCN(C)C(=O)[C@@H](Cc3ccccc3)NC(=O)CN(C)C(=O)[C@@H](Cc3ccccc3)NC(=O)[C@H](Cc3ccc(OC(=O)N4CCOCC4)cc3)N(C)C(=O)COc3cc(F)cc2c3)cc1OC [Compound 868] | low |  | 
COc1ccc(CC[C@H]2OC(=O)[C@@H]3CCCCN3C(=O)C(=O)C(C)(C)COC(=O)/C=C/CCN(C)C(=O)[C@H](CC(C)C)N(C)C(=O)[C@H]3CCCN3C(=O)[C@H](Cc3ccccc3)NC(=O)[C@H](c3ccccc3)NC(=O)CCC(=O)Nc3cccc2c3)cc1OC [Compound 1594] |  | Low (“Low” indicates a response greater than 0.6 times the activity relative to DMSO) | efficacy in Rat Renal Ischemia-Reperfusion model [5]: efficacious
COc1ccc(CC[C@H]2OC(=O)[C@@H]3CCCCN3C(=O)C(=O)C(C)(C)COC(=O)/C=C/CCN(C)C(=O)[C@H](CC(C)C)N(C)C(=O)[C@H]3CCCN3C(=O)[C@H](Cc3ccc(OCC(=O)O)cc3)NC(=O)[C@H](c3ccccc3)NC(=O)CCC(=O)Nc3cccc2c3)cc1OC [Compound 1593] |  | High (“High” indicates a response less than 0.3 times the activity relative to DMSO) | efficacy in Rat Renal Ischemia-Reperfusion model [5]: efficacious
